Columns and labels:
[1] = Particle characteristics of LNPs containing EGFP mRNA and novel ionizable lipids; format: physicochemical; details: EGFP mRNA LNP 1.6:54.6:32.8:10.9
Procedure: The lipid solution contains 4 components: a PEG-conjugated lipid, an ionizable lipid, cholesterol, and a phospholipid (e.g., DSPC). Lipid stocks were prepared using the lipid identities and molar ratios as described, to achieve a total concentration of ˜7 mg/mL in 100% ethanol. […] Equal volumes of the lipid and nucleic acid solutions were blended at a flow rate of 400 mL/min through a T-connector, and diluted with ˜4 volumes of PBS, pH 7.4. Formulations were placed in Slide-A-Lyzer dialysis units (MWCO 10,000) and dialyzed overnight against 10 mM Tris, 500 mM NaCl, pH 8 buffer. Following dialysis, the formulations were concentrated to ˜0.6 mg/mL using VivaSpin concentrator units (MWCO 100,000) and dialyzed overnight against 5 mM Tris, 10% sucrose, pH 8 buffer. Formulations were filtered through a 0.2 μm syringe filter (PES membrane). Nucleic acid concentration was determined by the RiboGreen assay. Particle size and polydispersity were determined using a Malvern Nano Series Zetasizer.
LNP formulations containing novel ionizable lipids all produced stable particles with high encapsulation efficiency (Tables 20-23).

[2] = Parent ionizable lipid remaining in liver at 24 h after EGFP mRNA LNP (LC-MS); format: in vivo; details: 24 h after IV 0.5 mg/kg EGFP mRNA LNP, female BALB/c mice (n = 4)
Procedure: Liver tissues were treated with PBS and homogenized with a FastPrep machine, 3 cycles of 5 m/s×15 s. Homogenates from the PBS-treated control animals was pooled and used for standard curve preparation. Samples were extracted into a deep well plate with 250 μL of an internal suitability standard. Plates were centrifuged for 15 min at 4° C. and 2000 rpm. Analysis was performed using an Agilent 6520 QTOF coupled to an Agilent 1290 UHPLC, using reverse-phase LC separation. Quantitation of the ionizable lipid was by MS/MS against a calibration curve spiked into appropriately matched blank matrix. Calibration used a similar class of synthetic lipid as internal standard.
At 24 h post-dose, some treatment groups reported lower levels of novel ionizable lipid in mouse liver compared to the benchmark (Tables 28-31).

[3] = system: EGFP expression in the liver; experiment: EGFP expression in liver after intravenous EGFP mRNA LNP (ELISA); details: 0.5 mg/kg IV, 24 h post-IV administration, BALB/c mice (n = 4)
Procedure: LNP formulations encapsulating enhanced green fluorescent protein mRNA were injected intravenously at 0.5 mg/kg to female BALB/c mice (6-8 weeks old). On day of injection, the LNP stocks were filtered and diluted to the required dosing concentration with phosphate buffered saline. At 24 hours post-administration, animals were anaesthetized with a lethal dosage of ketamine/xylazine. Liver samples (left lateral lobe) were collected, weighed, and flash frozen in liquid nitrogen. Liver samples were stored in FastPrep® tubes at −80° C. until analyzed for EGFP expression.
Liver homogenates were prepared in cell extraction buffer, diluted, and analyzed for EGFP protein levels using ELISA, according to manufacturer's instructions (Abcam, GFP ELISA Kit).

SMILES	Final Product % EE ([1]; Table 21)	Final Product PDI ([1]; Table 21)	Final Product Z-avg ([1]; Table 21)	Parent ionizable lipid remaining in liver, Average ([2]; Table 29)	EGFP ([3]; Table 25)	further results
CCCCCCCCCCC(CCCCCCC(=O)OCCC(CCCCC)CCCCC)N(CCCCCCCCCC)C(=O)CCCCN1CCCC1 (centres unmarked) [Compound 89, 3-Pentyloctyl 8-(N-decyl-5-(pyrrolidin-1-yl)pentanamido)octadecanoate]	–	–	–	–	–	Final Product % EE ([1]; Table 20): 99%; Final Product PDI ([1]; Table 20): 0.03; Final Product Z-avg ([1]; Table 20): 83 nm; Parent ionizable lipid remaining in liver, Average ([2]; Table 28): 4.32 nmol/g liver; EGFP ([3]; Table 24): 2.01E+07 pg/g liver
CCCCCCCCCCC(CCCCCCC(=O)OCCC(CCCCCC)CCCCCC)N(CCCCCCCCCC)C(=O)CCCCN1CCCC1 (centres unmarked) [Compound 90, 3-Hexylnonyl 8-(N-decyl-5-(pyrrolidin-1-yl)pentanamido)octadecanoate]	–	–	–	–	–	Final Product % EE ([1]; Table 20): 99%; Final Product PDI ([1]; Table 20): 0.07; Final Product Z-avg ([1]; Table 20): 79 nm; Parent ionizable lipid remaining in liver, Average ([2]; Table 28): 13.37 nmol/g liver; EGFP ([3]; Table 24): 2.12E+07 pg/g liver
CCCCCCCCCCC(CCCCCCC(=O)OCCC(CCCCCCC)CCCCCCC)N(CCCCCCCCCC)C(=O)CCCCN1CCCC1 (centres unmarked) [Compound 91, 3-Heptyldecyl 8-(N-decyl-5-(pyrrolidin-1-yl)pentanamido)octadecanoate]	–	–	–	–	–	Final Product % EE ([1]; Table 20): 99%; Final Product PDI ([1]; Table 20): 0.03; Final Product Z-avg ([1]; Table 20): 85 nm; Parent ionizable lipid remaining in liver, Average ([2]; Table 28): 18.58 nmol/g liver; EGFP ([3]; Table 24): 3.15E+07 pg/g liver
CCCCCCCCCCN(C(=O)CCCN(C)C)C(CCCCCCCCC)CCCCCCC(F)(F)C(=O)OC(CCCCCC)CCCCCC (centres unmarked) [Compound 92, Tridecan-7-yl 9-(N-decyl-4-(dimethylamino)butanamido)-2,2-difluorooctadecanoate]	99%	0.09	71 nm	8.83 nmol/g liver	6.34E+05 pg/g liver	–
CCCCCCCCCCN(C(=O)CCCN(C)C)C(CCCCCCCCC)CCCCCCC(F)(F)C(=O)OC(CCCCCCC)CCCCCCC (centres unmarked) [Compound 93, Pentadecan-8-yl 9-(N-decyl-4-(dimethylamino)butanamido)-2,2-difluorooctadecanoate]	98%	0.02	69 nm	24.61 nmol/g liver	1.77E+05 pg/g liver	–
CCCCCC/C=C\CCON(C(=O)CCCCN(C)C)C(CCCCCCCCCC)CCCCCCC(=O)OCCC(CCCCC)CCCCC (centres unmarked) [Compound 94, 3-Pentyloctyl (Z)-8-(N-(dec-3-en-1-yloxy)-5-(dimethylamino)pentanamido)octadecanoate]	98%	0.06	83 nm	6.57 nmol/g liver	1.20E+06 pg/g liver	–
CCCCCCCCCCON(C(=O)CCCCN(C)C)C(CCCCCCCCCC)CCCCCCC(=O)OCCC(CCCCC)CCCCC (centres unmarked) [Compound 95, 3-Pentyloctyl 8-(N-(decyloxy)-5-(dimethylamino)pentanamido)octadecanoate]	96%	0.08	80 nm	9.44 nmol/g liver	8.76E+05 pg/g liver	–
CCCCCCCCCCON(C(=O)CCCCN(C)C)C(CCCCCCCCCC)CCCCCCC(=O)OCCC(CCCCCC)CCCCCC (centres unmarked) [Compound 97, 3-Hexylnonyl 8-(N-(decyloxy)-5-(dimethylamino)pentanamido)octadecanoate]	99%	0.07	85 nm	19.31 nmol/g liver	1.48E+06 pg/g liver	–
CCCCCC/C=C\CCON(C(=O)CCCCN(C)C)C(CCCCCCCCCC)CCCCCCC(=O)OCCC(CCCCCCC)CCCCCCC (centres unmarked) [Compound 98, 3-Heptyldecyl (Z)-8-(N-(dec-3-en-1-yloxy)-5-(dimethylamino)pentanamido)octadecanoate]	99%	0.06	84 nm	30.21 nmol/g liver	9.76E+05 pg/g liver	–
CCCCCCCCCCON(C(=O)CCCCN(C)C)C(CCCCCCCCCC)CCCCCCC(=O)OCCC(CCCCCCC)CCCCCCC (centres unmarked) [Compound 99, 3-Heptyldecyl 8-(N-(decyloxy)-5-(dimethylamino)pentanamido)octadecanoate]	97%	0.04	86 nm	19.93 nmol/g liver	1.05E+06 pg/g liver	–
CCCCCC/C=C\CCON(C(=O)CCCN(C)C)C(CCCCCCCCCC)CCCCCCC(=O)OCCC(CCCCC)CCCCC (centres unmarked) [Compound 100, 3-Pentyloctyl (Z)-8-(N-(dec-3-en-1-yloxy)-4-(dimethylamino)butanamido)octadecanoate]	98%	0.08	72 nm	5.03 nmol/g liver	5.98E+05 pg/g liver	–
CCCCCCCCCCN(C(=O)CCCN(C)C)C(CCCCCCCCC)CCCCC(F)(F)C(=O)OCC(CCCCCC)CCCCCCCC (centres unmarked) [Compound 102, 2-Hexyldecyl 7-(N-decyl-4-(dimethylamino)butanamido)-2,2-difluorohexadecanoate]	98%	0.09	67 nm	5.72 nmol/g liver	1.94E+05 pg/g liver	–
CCCCCCCCCCN(C(=O)CCCN(C)C)C(CCCCCCCCC)CCCCC(F)(F)C(=O)OCCC(CCCCCC)CCCCCC (centres unmarked) [Compound 103, 3-Hexylnonyl 7-(N-decyl-4-(dimethylamino)butanamido)-2,2-difluorohexadecanoate]	98%	0.09	67 nm	0.00 nmol/g liver	9.54E+04 pg/g liver	–
CCCCCCCCCCN(C(=O)CCCN(C)C)C(CCCCCCCCC)CCCCCCC(F)(F)C(=O)OC(CCCCCCCC)CCCCCCCC (centres unmarked) [Compound 104, Heptadecan-9-yl 9-(N-decyl-4-(dimethylamino)butanamido)-2,2-difluorooctadecanoate]	–	–	–	–	–	Final Product % EE ([1]; Table 22): 99%; Final Product PDI ([1]; Table 22): 0.07; Final Product Z-avg ([1]; Table 22): 74 nm; Parent ionizable lipid remaining in liver, Average ([2]; Table 30): 51.14 nmol/g liver; EGFP ([3]; Table 26): 7.36E+06 pg/g liver
CCCCCCCCCCC(CCCCCCC(=O)OCCC(CCCCCC)CCCCCC)N(CCCCCCCCCC)C(=O)OCCCN(C)C (centres unmarked) [Compound 105, 3-hexylnonyl 8-(decyl((3-(dimethylamino)propoxy)carbonyl)-amino) octadecanoate]	–	–	–	–	–	Final Product % EE ([1]; Table 22): 97%; Final Product PDI ([1]; Table 22): 0.08; Final Product Z-avg ([1]; Table 22): 82 nm; Parent ionizable lipid remaining in liver, Average ([2]; Table 30): 18.96 nmol/g liver; EGFP ([3]; Table 26): 1.86E+07 pg/g liver
CCCCCCCCCCON(C(=O)CCCN(C)C)C(CCCCCCCCCC)CCCCCCC(F)(F)C(=O)OC(CCCCCCC)CCCCCCC (centres unmarked) [Compound 106, Pentadecan-8-yl 9-(N-(decyloxy)-4-(dimethylamino)butanamido)-2,2-difluoro-nonadecanoate]	–	–	–	–	–	Final Product % EE ([1]; Table 22): 95%; Final Product PDI ([1]; Table 22): 0.13; Final Product Z-avg ([1]; Table 22): 73 nm; Parent ionizable lipid remaining in liver, Average ([2]; Table 30): 56.97 nmol/g liver; EGFP ([3]; Table 26): 2.45E+07 pg/g liver

Reference: US20250332112A1, “IONIZABLE CATIONIC LIPIDS FOR LIPID NANOPARTICLES” (GENEVANT SCIENCES GMBH, priority 2022, published 2025)
